Assay results from patent US11584714B2 (priority 2018, dated 2023).
Counter-ions that a name gives are not always drawn. Like-named read-outs stand apart in the source and are kept apart here.

What was measured:
Type in all cases: biochemical
[1] = target: mMASP-2 (Mus musculus (Mouse), UniProt Q91WP0); test: Enzymatic inhibition of mMASP-2
[2] = tested on: Lectin Pathway; test: Lectin pathway activation assay in human serum (mannan-coated ELISA, C3c detection); conditions: 1% human serum
[3] = target: MASP-2 (CCP1-CCP2-SP) (Homo sapiens (Human), UniProt O00187); test: biochemical
[4] = target: human α-thrombin (Homo sapiens (Human), UniProt P00734); test: Enzymatic assay for thrombin (Boc-VPR-AMC substrate)
[5] = MASP-2 inhibition versus thrombin
[6] = selectivity for MASP-2 inhibition versus thrombin

Chain of mMASP-2 (Q91WP0 20-685): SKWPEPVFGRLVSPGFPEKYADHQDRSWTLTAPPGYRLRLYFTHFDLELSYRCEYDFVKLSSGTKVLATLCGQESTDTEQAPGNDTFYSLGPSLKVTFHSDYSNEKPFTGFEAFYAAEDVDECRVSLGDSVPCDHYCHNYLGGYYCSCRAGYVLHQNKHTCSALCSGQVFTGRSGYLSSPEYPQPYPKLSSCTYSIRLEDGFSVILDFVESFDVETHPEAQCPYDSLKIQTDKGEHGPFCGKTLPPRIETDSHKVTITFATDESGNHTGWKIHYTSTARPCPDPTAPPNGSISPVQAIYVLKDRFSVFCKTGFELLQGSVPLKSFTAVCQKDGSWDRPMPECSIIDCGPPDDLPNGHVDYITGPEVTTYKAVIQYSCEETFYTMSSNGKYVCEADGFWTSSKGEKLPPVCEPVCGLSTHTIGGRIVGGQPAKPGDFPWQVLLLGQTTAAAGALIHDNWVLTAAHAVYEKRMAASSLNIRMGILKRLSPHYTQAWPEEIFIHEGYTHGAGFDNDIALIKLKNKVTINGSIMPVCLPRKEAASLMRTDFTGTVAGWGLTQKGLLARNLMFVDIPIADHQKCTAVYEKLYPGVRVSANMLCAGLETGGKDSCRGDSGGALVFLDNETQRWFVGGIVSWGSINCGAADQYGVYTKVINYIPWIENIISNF
Chain of MASP-2 (CCP1-CCP2-SP) (O00187 445-686): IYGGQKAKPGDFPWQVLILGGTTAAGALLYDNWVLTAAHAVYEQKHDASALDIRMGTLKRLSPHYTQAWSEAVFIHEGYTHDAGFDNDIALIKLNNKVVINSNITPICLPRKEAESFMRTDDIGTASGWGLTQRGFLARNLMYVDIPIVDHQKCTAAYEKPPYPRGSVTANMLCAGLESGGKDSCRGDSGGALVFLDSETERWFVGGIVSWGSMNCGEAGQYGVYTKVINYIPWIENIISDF

Row | Compound | Ki ([1]; read-out: mMASP-2 Ki) | IC50 [2] | MASP-2 vs. thrombin selectivity [3, 5] | Ki ([3]; read-out: MASP-2 Ki) | Ki ([4]; read-out: Thrombin Ki) | MASP-2 vs. thrombin selectivity [3, 6] | Ki ([4]; Thrombin Ki (μM)) | Ki [3] | Ki [1]
1 | C[C@H](NC(=O)[C@H](N)CCc1ccccc1)C(=O)NCc1ccc2nc(N)[nH]c2c1 (single isomer, unassigned) [compound 1040, Di-trifluoroacetate salt] | < 500 nM | 500 to 5000 nM | **** (>100-fold) | < 500 nM | > 25 µM | – | – | – | –
2 | Cc1nc(N)ccc1CNC(=O)C(C)NC(=O)[C@H]1C[C@H](c2cccc(-c3ccccc3)c2)CN1 (stereo in doubt) [compound 1360, (2R,4R)-4-([1,1′-Biphenyl]-3-yl)-N—((R)-1-(((6-amino-2-methylpyridin-3-yl)methyl)amino)-1-oxopropan-2-yl)pyrrolidine-2-carboxamide Di-trifluoroacetate salt] | < 500 nM | 50 to 500 nM | – | – | > 25 µM | – | – | – | –
3 | C[C@H](NC(=O)[C@H](N)CCc1ccccc1)C(=O)NCCc1ccc(N)nc1 [compound 1015, (R)-2-Amino-N—((S)-1-((2-(6-aminopyridin-3-yl)ethyl)amino)-1-oxopropan-2-yl)-4-phenylbutanamide Dihydrochloride] | < 25000 nM | 5000 to 50000 nM | – | – | > 25 µM | – | – | – | –
4 | C[C@H](NC(=O)[C@H](N)CCc1ccccc1)C(=O)NCCc1ccnc(N)c1 [compound 1016, (R)-2-Amino-N—((S)-1-((2-(2-aminopyridin-4-yl)ethyl)amino)-1-oxopropan-2-yl)-4-phenylbutanamide Dihydrochloride] | < 25000 nM | 5000 to 50000 nM | – | – | > 25 µM | – | – | – | –
5 | C[C@H](NC(=O)[C@H](N)CCc1ccccc1)C(=O)NCc1ccc2c(N)ncnc2c1 [compound 1060, (R)-2-Amino-N—((S)-1-(((4-aminoquinazolin-7-yl)methyl)amino)-1-oxopropan-2-yl)-4-phenylbutanamide Dihydrochloride] | > 25000 nM | > 50000 nM | *** (25 to 100-fold) | – | > 25 µM | – | – | – | –
6 | C[C@H](NC(=O)[C@H](N)C1Cc2ccccc2C1)C(=O)NCc1ccc2c(N)nccc2c1 [compound 1088, (S)-2-((R)-2-Amino-2-(2,3-dihydro-1H-inden-2-yl)acetamido)-N-((1-aminoisoquinolin-6-yl)methyl)propanamide Dihydrochloride] | < 500 nM | 50 to 500 nM | – | < 500 nM | – | – | – | – | –
7 | C[C@H](NC(=O)[C@H](N)C1Cc2ccccc2C1)C(=O)NCc1ccc2nc(N)ccc2c1 [compound 1091] | < 500 nM | 5000 to 50000 nM | – | – | > 25 µM | – | – | – | –
8 | Cc1c(Cl)cccc1CC[C@@H](N)C(=O)N[C@@H](C)C(=O)NCc1ccc(C(=N)N)cc1 [compound 1103] | < 500 nM | 50 to 500 nM | ** (5.0 to 25-fold) | < 500 nM | < 0.5 µM | – | – | – | –
9 | N=C(N)c1ccc(CNC(=O)[C@@H]2CCN2C(=O)[C@@H](CCCc2ccccc2)NCC(=O)O)cc1 [compound 1131] | – | 500 to 5000 nM | −− (less than 1.0-fold) | < 500 nM | < 0.5 µM | – | – | – | –
10 | Cc1ccc(CSC(C)(C)[C@@H](N)C(=O)N2CC[C@H]2C(=O)NCc2ccc(C(=N)N)cc2)cc1 [compound 1133] | – | 5000 to 50000 nM | −− (less than 1.0-fold) | < 500 nM | < 0.5 µM | – | – | – | –
11 | C[C@@H](C(=O)NCc1ccc2c(N)nccc2c1)N(C)C(=O)[C@H](N)CCc1cccc(C(F)(F)F)c1 [compound 1139, (R)-2-Amino-N—((S)-1-(((1-aminoisoquinolin-6-yl)methyl)amino)-1-oxopropan-2-yl)-N-methyl-4-(3-(trifluoromethyl)phenyl)butanamide Dihydrochloride] | < 10000 nM | 5000 to 50000 nM | – | < 500 nM | – | – | – | – | –
12 | Cc1[nH]c(C(=O)N[C@@H](C)C(=O)NCc2ccc(C(=N)N)cc2)cc1-c1ccccc1 [compound 1239, (S)—N-(1-((4-Carbamimidoylbenzyl)amino)-1-oxopropan-2-yl)-5-methyl-4-phenyl-1H-pyrrole-2-carboxamide] | < 500 nM | 500 to 5000 nM | – | < 500 nM | – | ** (≥5.0 to <25-fold) | 2.5 to 10 µM | – | –
13 | C[C@H](NC(=O)c1cc(-c2ccccc2)c(-c2ccccc2)[nH]1)C(=O)NCc1ccc(C(=N)N)cc1 [compound 1240, (S)—N-(1-((4-Carbamimidoylbenzyl)amino)-1-oxopropan-2-yl)-4,5-diphenyl-1H-pyrrole-2-carboxamide] | – | 500 to 5000 nM | – | – | – | ** (≥5.0 to <25-fold) | 10 to 25 µM | 500 to 2500 nM | –
14 | Cc1nc(N)ccc1CNC(=O)[C@H](C)NC(=O)[C@H]1C[C@@H](c2ccccc2)CCN1 [compound 1253, (2R,4S)—N—((S)-1-(((6-Amino-2-methylpyridin-3-yl)methyl)amino)-1-oxopropan-2-yl)-4-phenylpiperidine-2-carboxamide] | – | 50 to 500 nM | – | < 500 nM | > 25 µM | – | – | – | 500 to 2500 nM
15 | Cc1nc(N)ccc1CNC(=O)[C@H](C)NC(=O)[C@H]1C[C@H](Cc2cccc3ccccc23)CN1 [compound 1324, (2R,4S)—N—((S)-1-(((6-Amino-2-methylpyridin-3-yl)methyl)amino)-1-oxopropan-2-yl)-4-(naphthalen-1-ylmethyl)pyrrolidine-2-carboxamide Di-trifluoroacetate salt] | < 500 nM | 50 to 500 nM | – | < 500 nM | – | *** (≥25 to <100-fold) | 0.5 to 2.5 µM | – | –
16 | Cc1nc(N)ccc1CNC(=O)[C@H](C)NC(=O)[C@H]1C[C@H](Cc2cccc(Cl)c2)CN1 [compound 1328, (2R,4S)—N—((S)-1-(((6-amino-2-methylpyridin-3-yl)methyl)amino)-1-oxopropan-2-yl)-4-(3-chlorobenzyl)pyrrolidine-2-carboxamide Dihydrochloride] | < 500 nM | 50 to 500 nM | – | < 500 nM | – | **** (≥100-fold) | 0.5 to 2.5 µM | – | –
17 | Cc1cc(C)cc(C[C@@H]2CN[C@@H](C(=O)N[C@@H](C)C(=O)NCc3ccc(N)nc3C)C2)c1 [compound 1331, (2R,4S)—N—((S)-1-(((6-amino-2-methylpyridin-3-yl)methyl)amino)-1-oxopropan-2-yl)-4-(3,5-dimethylbenzyl)pyrrolidine-2-carboxamide Dihydrochloride] | < 500 nM | 50 to 500 nM | – | < 500 nM | > 25 µM | **** (≥100-fold) | – | – | –
18 | Cc1cccc(C[C@@H]2CN[C@@H](C(=O)N[C@@H](C)C(=O)NCc3ccc(N)nc3C)C2)c1 [compound 1337, (2R,4S)—N—((S)-1-(((6-amino-2-methylpyridin-3-yl)methyl)amino)-1-oxopropan-2-yl)-4-(3-methylbenzyl)pyrrolidine-2-carboxamide dihydrochloride] | < 500 nM | 500 to 5000 nM | – | < 500 nM | – | **** (≥100-fold) | 0.5 to 2.5 µM | – | –
19 | C[C@H](NC(=O)[C@@H](CCc1ccccc1)NCCc1ccc(Cl)cc1)C(=O)NCc1ccc(C(=N)N)cc1 [compound 1339, (R)—N—((S)-1-((4-Carbamimidoylbenzyl)amino)-1-oxopropan-2-yl)-2-((4-chlorophenethyl)amino)-4-phenylbutanamide Di-trifluoroacetate salt] | < 500 nM | < 50 nM | – | < 500 nM | < 0.5 µM | ** (≥5.0 to <25-fold) | – | – | –
20 | Cc1nc(N)ccc1CNC(=O)[C@H](C)NC(=O)C1=CC(c2ccccc2)C2=C(CC(C)(C)CC2=O)N1 (stereo partly drawn) [compound 1388, N-((S)-1-(((6-Amino-2-methylpyridin-3-yl)methyl)amino)-1-oxopropan-2-yl)-7,7-dimethyl-5-oxo-4-phenyl-1,4,5,6,7,8-hexahydroquinoline-2-carboxamide] | < 500 nM | < 50 nM | – | – | > 25 µM | – | – | – | –
21 | Cc1nc(N)ccc1CNC(=O)[C@H](C)NC(=O)[C@H]1C[C@H](Cc2ccc(-c3ccc(F)cc3C#N)cc2)CN1 [compound 1396, (2R,4S)—N—((S)-1-(((6-Amino-2-methylpyridin-3-yl)methyl)amino)-1-oxopropan-2-yl)-4-((2′-cyano-4′-fluoro-[1,1′-biphenyl]-4-yl)methyl)pyrrolidine-2-carboxamide] | < 500 nM | 500 to 5000 nM | – | – | > 25 µM | – | – | – | –
22 | C[C@H](NC(=O)[C@H]1C[C@H](Cc2ccccc2)CN1)C(=O)NCc1cnc2c(c1)c(Cl)cn2C [compound 1450, (2R,4S)-4-Benzyl-N-((S)-1-(((3-chloro-1-methyl-1H-pyrrolo[2,3-b]pyridin-5-yl)methyl)amino)-1-oxopropan-2-yl)pyrrolidine-2-carboxamide Dihydrochloride] | < 500 nM | 50 to 500 nM | – | < 500 nM | – | **** (≥100-fold) | – | – | –
